# Experiments:
# HUVECs = experiment: NO and ONOO^− release from pretreated HUVECs exposed to native LDL undergoing oxidation (Example 11, Objective 3); type: cell-based, human; details: cells pretreated 30 min, agents each at 10 μM; native LDL 11 mg/dL pretreated with the same agents under auto-oxidation; 60 min
# Description: The omega-3 fatty acid, cis-5,8,11,14,17-eicosapentaenoic acid (EPA) and docosahexaenoic acid (DHA) were purchased from Sigma-Aldrich (Saint Louis, Mo.) and solubilized in redistilled ethanol to 11 mM under nitrogen atmosphere. EPA and DHA stock solutions were stored at −20° C. until use.
# Human umbilical vein endothelial cells (HUVECs) were obtained from healthy, female donors and isolated into primary, proliferating cell cultures (Clonetics, San Diego, Calif.). The cells were incubated in 95% air/5% CO2 at 37° C. and passaged by an enzymatic (trypsin) procedure. The confluent cells (4 to 5×10^5 cells/35 mm dish) were plated with minimum essential medium containing 3 mM L-arginine and 0.1 mM BH4 [(6R)-5,6,7,8-tetrahydrobiopterin]. Before experimental use, the cells (from second or third passage) were rinsed twice with Tyrode-HEPES buffer with 1.8 mM CaCl2.
# Venous blood was collected from healthy volunteers into vacutainer tubes containing sodium EDTA. Plasma was separated by centrifugation at 3000 g for 25 min at 4° C. and adjusted to a density of 1.020 g/mL with KBr. Triglyceride-rich lipoproteins (TGRL) and LDL fractions were isolated by sequential centrifugation at 70,000 rpm at 4° C. in a Beckman LE-80 ultracentrifuge using a Beckman 50.4Ti rotor (Beckman Coulter, Inc., Fullerton, Calif.). The TGRL fraction (with a relative density of <1.020) was aspirated from the top of the centrifugate and discarded, leaving an LDL-enriched infranate (with a relative density of 1.020-1.063). The LDL subfraction was retained for additional experimentation. Plasma and lipoprotein fractions were maintained at 4° C. and protected from excessive exposure to light. Prior to oxidation experiments, EDTA was removed from the lipoprotein fraction using PD-10 desalting columns (GE Healthcare, Piscataway N.J.). After equilibration of the column with phosphate buffered saline (PBS), 2.5 mL of the lipoprotein fraction was loaded on the column and the flow-through discarded. The lipoprotein was then eluted with 3 mL of PBS. The LDL fractions were further diluted with PBS to obtain a 100 μg/mL apoB100 concentration.
# LDL underwent oxidation following the addition of 10 μM CuSO4. […] Sample TBARS concentrations were determined spectrophotometrically by measuring sample absorbances against a standard curve derived from the hydrolysis of 1,1,3,3-tetramethoxypropane. […]
# The amperometric method (with a response time of 0.1 ms) provides a quantitative signal (current) that is directly proportional to changes (from basal levels) in NO or ONOO^− concentration. […] Basal NO or ONOO^− levels were measured by differential pulse voltammetry in separate experiments. […]
# human sdLDL = experiment: Copper-induced sdLDL oxidation, TBARS after 2 hr (Example 6); type: biochemical; details: for reduction of TBARS levels compared to vehicle-treated controls: 10 μM CuSO4
# Description: An experiment to study the antioxidant effect of EPA in small dense […] performed. […] Vitamin E (α-tocopherol) was purchased from Sigma-Aldrich and prepared in ethanol at 1.0 mM (E=[…] cm^-1 at 294 nm) just prior to experimental use. All test compounds were further diluted in ethanol or aqueous buffer as needed. Venous blood was collected from healthy volunteers into vacutainer tubes containing sodium EDTA. Plasma was separated by centrifugation at 3000 g for 25 min at 4° C. and adjusted to a density of 1.020 g/mL with KBr. Triglyceride-rich lipoproteins (TGRL) and LDL fractions were then isolated by sequential centrifugation at 70,000 rpm at 4° C. in a Beckman LE-80 ultracentrifuge using a Beckman 50.4Ti rotor (Beckman Coulter, Inc., Fullerton, Calif.). The TGRL fraction (with a relative density of <1.020) was aspirated from the top of the centrifugate and discarded, leaving an LDL-enriched […] relative density of 1.020 to 1.063). […] The sdLDL subfraction was retained for additional experimentation. Plasma and lipoprotein fractions were maintained at 4° C. and protected from excessive exposure to light. Prior to oxidation experiments, EDTA was removed from the lipoprotein fraction using PD-10 desalting columns (GE Healthcare, Piscataway N.J.). After equilibration of the column with phosphate buffered saline (PBS), 2.5 mL of the lipoprotein fraction was loaded on the column and the flow-through discarded. The lipoprotein was then eluted with 3 mL of PBS. […] Data are presented as mean+S.D. for (N) separate samples or treatment groups. Differences between groups were analyzed using the two-tailed, Student's t-test (for comparisons between only two groups) or ANOVA followed by Dunnett or Student-Newman-Keuls multiple comparisons post-hoc analysis (for comparisons between three or more groups).
# unfractionated LDL = experiment: Copper-induced oxidation of unfractionated LDL, TBARS after 2 hr (Example 6); type: biochemical, human
Compound,NO (HUVECs),ONOO^− (HUVECs),reduction of TBARS levels compared to vehicle-treated controls (human sdLDL; 1.0 μM) [%],reduction of TBARS levels compared to vehicle-treated controls (human sdLDL; 10.0 μM) [%],"reduction of TBARS levels (unfractionated LDL; 10.0 μM, unfractionated LDL) [%]",effect on sdLDL oxidation over the concentration range (human sdLDL; 1.0 μM to 10.0 μM),effect on LDL oxidation (unfractionated LDL; 1.0 μM to 10.0 μM)
"CC/C=C\C/C=C\C/C=C\C/C=C\C/C=C\C/C=C\CCC(=O)O [DHA, docosahexaenoic acid]",406 ± 40,212 ± 26,,,,,
"CC/C=C\C/C=C\C/C=C\C/C=C\C/C=C\CCCC(=O)O [EPA, cis-5,8,11,14,17-eicosapentaenoic acid]",419 ± 37,207 ± 24,13,57,17,,
"Cc1c(C)c2c(c(C)c1O)CC[C@@](C)(CCC[C@H](C)CCC[C@H](C)CCCC(C)C)O2 [vitamin E, α-tocopherol]",,,,26,,did not inhibit sdLDL oxidation except at the highest concentration,did not inhibit LDL oxidation at any concentration
